Results from patent EP0620210A1, “Compounds with benzamidic structure active in gastro-intestinal pathologies” (priority 1993, dated 1994).
Marks after values point to notes of the source that are not given here.

Experiments:
[1] = tested on: serotonine activity on the fornix of the rat stomach; experiment: Influence on the serotonine activity on the fornix of the rat stomach; design: species or system Wistar rat
Procedure: The effect on the serotonine was evaluated on the fornix of the stomach of a rat according to the method of Vane J.R. in Br. J. Pharmacol. Chemother 12, 344, 1957. The action on the serotonine was evaluated on the fornix of the stomach of rat, also taken from Wistar rat sacrificed after 24 hours fasting, following the technique reported by Vane J.R. in Br. J. Pharmacol. Chemoter. 12, 344, 1957, as previously described.

[2] = tested on: acetylcholine activity on the rat ascending colon; experiment: Influence on the acetylcholine activity on isolated rat ascending colon (cumulative dose-response curves); design: species or system Wistar rat; conditions: De Jalon fluid 27°C
Procedure: Finally the effect on the acetylcholine was evaluated on the ascending colon of a rat, according to the method of Gaddum J. H. and Horton E.W. reported in Br. J. Pharmacol. Chemother. 14, 117, 1959. The effect of the products on the contracturing action of the acetylcholine was studied on the isolated ascending colon of rat, taken from Wistar rat sacrificed after 24 hours fasting, washed with De Jalon fluid at 27°C and perfused with the same oxygenated fluid (95% oxygen and 5% carbon dioxide) at the temperature of 27°C. In this case too the cumulative dose-response curves were recorded in the presence of increasing concentrations of the products being studied.

[3] = tested on: histamine on guinea-pig ileum; experiment: Influence on the activity of histamine on isolated guinea-pig ileum (cumulative dose-response curves)
Procedure: The effect on the histamine was evaluated on a preparation of guinea-pig ileum according to the method described by the above-mentioned authors. For the evaluation of the physiological peristalsis and the action on the histamine, the rabbit jejunum and the guinea-pig ileum were removed from the animals sacrificed after 24 hours fasting, washed with Tyrode fluid at 37°C and perfused with the same oxygenated fluid (95% oxygen and 5% carbon dioxide) at the temperature of 37°C. The rabbit jejunum was used to evaluate the extent of the spontaneous peristaltic contractions in the presence and in the absence of the derivatives being studied. On the guinea-pig ileum the cumulative dose-response curves to histamine were recorded in the presence of increasing concentrations of the products being examined.

[4] = tested on: rat; experiment: Test of gastric dumping in the rat; type: in vivo; conditions: 30' before the administration of the coloured meal
Procedure: Within the gastro-duodenal tract, the prokinetic activity was evaluated by means of the test of gastric dumping in the rat, according to the method reported by Scarpignato C. in J. Pharmacol 14, 261, 1983. […]

[5] = tested on: rats; experiment: Irwin's test (behaviour), modified to use rats; type: in vivo; conditions: 10 mg/Kg i.p., preliminary studies
Excerpt: Finally, preliminary studies on the effects as regards behaviour have been performed by means of Irwin's test, according to the method reported by Irwin S. in Gordon Res. Conf. on Medicinal Chem. 1959, 133, 1959, modified in that rats were used instead of mice.

[6] = tested on: pigeon; experiment: Test of vomit from cisplatin in the pigeon (antiemetic activity); type: in vivo; conditions: one hour before 7.5 mg/kg cisplatin; for Acts of vomit (average/anim.) / Animals that vomit %: observation 3 hours
Procedure: Finally the antiemetic activity was evaluated in the pigeon after induction of emesis with cisplatin, according to the method of Preziosi P. et al. in Eur. J. Pharmacol. 221, 343, 1992.

[7] = tested on: rabbit jejunum; experiment: Spontaneous peristaltic activity on isolated rabbit jejunum; conditions: Tyrode fluid 37°C
Procedure: The action on physiological peristalsis was evaluated on an isolated rabbit jejunum preparation, according to the method reported by Magnus J. in Pfluegers Arch. Gen. Physiol. 102, 123, 1904 and described by Beretta C. in Metodiche […] fisiologia e farmacologia, Tamburini Ed., Milano, 1972. For the evaluation of the physiological peristalsis and the action on the histamine, the rabbit jejunum and the guinea-pig ileum were removed from the animals sacrificed after 24 hours fasting, washed with Tyrode fluid at 37°C and perfused with the same oxygenated fluid (95% oxygen and 5% carbon dioxide) at the temperature of 37°C. The rabbit jejunum was used to evaluate the extent of the spontaneous peristaltic contractions in the presence and in the absence of the derivatives being studied. […]

[8] = tested on: Sprague-Dawley rats; experiment: Study of acute toxicity (LD50); type: in vivo; conditions: i.v., rats of both sexes, observation period of 14 days
Procedure: The acute toxicity (LD₅₀) of the derivatives described in this invention was evaluated according to the method reported by Lietchfield J.T. and Wilcoxon F. in J. Pharmacol. Exp. Ther. 96, 99, 1949, on Sprague-Dawley rats of both sexes, over an observation period of 14 days from the day of treatment.

[9] = tested on: Swiss albino mice; experiment: Test of the progression of the opaque meal in the mouse (intestinal transit); type: in vivo
Procedure: The prokinetic action was evaluated in vivo on Swiss albino mice determining the influence of the products on the intestinal transit of an opaque meal, according to the method described by […]. and Barba-Gose J. in J. Amer. Pharm. Ass. 20, 558, 1931 and later by Witkin L.B. et al. in J. Pharmacol. Exp. Ther. […] The method involved the administration of an opaque meal to the mice after a 24 hour fast, through gastric probe, 15 minutes after the administration of the product. After sacrificing the animals 20 minutes after the administration of the opaque meal, the percentage of the length of the intestine travelled by the opaque meal was calculated. […]

## CCN(CC)CCCNC(=O)c1cc(Cl)ccc1NC.O=C(O)C(=O)O [Example 8, 5-Chloro-N-[3-(diethylamino)propyl]-2-methylaminobenzamide oxalate]
[1]
  effect: competitive antagonism
[2]
  effect: non competitive antagonism
[3]
  effect: mixed antagonism
[4]; 5.0 µg/kg
  Increase % of the gastric dumping with respect to the controls 20' after the coloured meal: 0.0%
[4]; 10.0 µg/kg
  Increase % of the gastric dumping with respect to the controls 20' after the coloured meal: 60.9* %
[4]; 50.0 µg/kg
  Increase % of the gastric dumping with respect to the controls 20' after the coloured meal: 74.8* %
[4]; 100.0 µg/kg
  Increase % of the gastric dumping with respect to the controls 20' after the coloured meal: 8.7%
[4]; 200.0 µg/kg
  Increase % of the gastric dumping with respect to the controls 20' after the coloured meal: 58.7* %
[5]
  variations in behaviour parameters (consciousness, mood, motor activity, excitation of the central nervous system, posture, motor coordination, muscular tone, reflexes, autonomous nervous system): no significant variations with respect to the controls
[6]; 50.0 μg/kg i.m.
  Latency of 1st act of vomit: 100 min
  Variation % of the time of latency with respect to the controls: +18.3%
  Acts of vomit (average/anim.): 7.5
  Animals that vomit %: 100.0%
[6]; 100.0 μg/kg i.m.
  Latency of 1st act of vomit: 100 min
  Variation % of the time of latency with respect to the controls: +18.3%
  Acts of vomit (average/anim.): 7.0
  Animals that vomit %: 100.0%
[7]
  maximum effect % (max. increase of extent of the contractions): +17.8%
[8]
  LD ₅₀: 60 mg/Kg/i.v.
[9]; 17.3 µg/Kg p.o., 15' before the opaque meal, * = p < 0.05
  variation in % with respect to the controls: 0.0%
[9]; 17.3 µg/Kg p.o., 15' before the opaque meal, sacrifice 20 minutes after the meal
  % of intestine (from pylorus to anus) travelled by the opaque meal: 41.0%
[9]; dose 5 times greater than ED₅₀, reference drug cisapride
  prokinetic activity compared with the reference drug: considerably more active than the reference drug
[9]; dose five times greater than ED₅₀
  % of intestine (from pylorus to anus) travelled by the opaque meal: 59.9%
[9]; dose five times greater than ED₅₀, * = p < 0.05
  Variation % with respect to the controls: 47.5* %
